Key:
Type in all cases: in vivo
[1] = system: Chamomilla recutita, Artemisia pallens, Pelargonium graveolens, and Mentha arvensis; assay: Screening of resistance-inducing chemicals on potted aromatic plants under glasshouse conditions; conditions: plants in pots, four aromatic plants
From the text: In this example, fifteen chemicals known to induce resistance in plants were screened by applying the chemicals to four varieties of aromatic plants in pots. The four aromatic plants used in this screening included: Chamomilla recutita, Artemisia pallens, Pelargonium graveolens, and Mentha arvensis. […] These eight chemicals include isonicotinamide, DL-2 amino butyric acid, 4-chlorosalicylic acid, 2-amino isobutyric acid, o-acetyl salicylic acid, amino salicylic acid, salicylic acid, and 5-nitrosalicylic acid.

[2] = system: Mentha arvensis cv. Kosi; assay: Field testing of identified compounds, essential oil content; conditions: for Content of Essential Oil (%): 2 mM spray at onset of maturity, 15 days before harvest, water control 0.66, LSD (p = 0.05) 0.06
Procedure: (§1) The eight chemicals selected in the previous example for their effects on aromatic plants were subsequently field tested using 2 mM solutions of each chemical in sterilized distilled water. The field tests were performed on Pelargonium graveolens cv. Bipuli and Mentha arvensis cv. […] The plants were sprayed with the 2 mM solutions of the chemicals at the onset of maturity, 15 days before harvest. Plants sprayed with sterilized distilled water served as a control group.

[3] = system: Pelargonium graveolens cv. Bipuli; assay: as above; conditions: for Content of Essential Oil (%): 2 mM spray at onset of maturity, 15 days before harvest, water control 0.13, LSD (p = 0.05) 0.01; for change in essential oil content (in words): stated for the field tests of Table 1 (both plants) without naming the plant
Procedure: as §1

[4] = system: Mentha arvensis cv. Kosi; assay: Optimal crop maturity stage for chemical application, essential oil content; conditions: 2 mM spray, LSD (p = 0.05) 0.07
Procedure: In this example, three of the chemicals described above were further investigated to determine the optimal crop maturity stage for applying the formulation. The three chemicals used in this example were DL-2 amino butyric acid, isonicotinamide, and salicylic acid, all at concentrations of 2 mM. The solutions were tested on Mentha arvensis cv. Kosi planted in a randomized block design with 5 replications. In these experiments, the crops were sprayed at 4 different stages of growth and development including 10-day-old crops, 50-day-old crops, 80-day-old crops, and 100-day-old crops.

[5] = system: Pelargonium graveolens cv. Bipuli; assay: Large scale field testing at several concentrations, essential oil content; conditions: for Content of Essential Oil (%): distilled 15 days after spray, water 0.16, LSD (p = 0.05) 0.01
Procedure: (§2) In the present example, field experiments were conducted, wherein 6 larger plots of Pelargonium graveolens cv. Bipuli (about 25 m^2) were sprayed with solutions of DL-2 amino butyric acid at several different concentrations. An equal number of plots sprayed with sterilized distilled water served as a control group. At least 20 samples of herbage from the sprayed plots and at least 20 samples of herbage from the control plots were distilled in Clevenger type glass apparatus 15 days after spray.

[6] = system: Mentha arvensis cv. Kosi; assay: Further large plot field testing at about 206 mg/L, essential oil content
Procedure: as §2
(§3) Further field testing involved samples of herbage of both Pelargonium graveolens cv. Bipuli and Mentha arvensis cv. Kosi being treated with a solution of DL-2 amino butyric acid at a concentration of about 206 mg/L in water. Similarly to the above tests, large plots were sprayed with the DL-2 amino butyric acid solution, and samples of herbage from both the sprayed plots and the control plots were examined for their essential oil content.

[7] = system: Pelargonium graveolens cv. Bipuli; assay: as above
Procedure: as §2, §3

[8] = 2 mM spray, versus water control
[9] = age of crop at spray 10 days, water 0.67
[10] = age of crop at spray 50 days, water 0.67
[11] = age of crop at spray 80 days, water 0.68
[12] = age of crop at spray 100 days, water 0.66
[13] = about 206 mg/L, compared to herbage samples treated only with water

Compound | improving growth and herbage and/or essential oil content [1] | Content of Essential Oil (%) [2] | increase in essential oil content [2, 8] | Content of Essential Oil (%) [3] | increase in essential oil content [3, 8] | Content of Essential Oil (%) [4, 9] | Content of Essential Oil (%) [4, 10] | Content of Essential Oil (%) [4, 11] | Content of Essential Oil (%) [4, 12] | Content of Essential Oil (%) ([5]; 0.1 mM solution) | Content of Essential Oil (%) ([5]; 1.0 mM solution) | increase in essential oil content ([5]; 2 mM and 4 mM, versus water) | Content of Essential Oil (%) ([5]; 2.0 mM solution) | Content of Essential Oil (%) ([5]; 4.0 mM solution) | Content of Essential Oil (Mean % ± S.E.) ([6]; about 206 mg/L in water, n ≧ 20 herbage samples, water 0.74 ± 0.02) | increase in essential oil content [6, 13] | Content of Essential Oil (Mean % ± S.E.) ([7]; about 206 mg/L in water, n ≧ 20 herbage samples, water 0.14 ± 0.01) | increase in essential oil content [7, 13] | change in essential oil content (in words) ([3]; 2 mM spray)
CCC(N)C(=O)O (racemic) [DL-2 amino butyric acid] | particularly effective | 0.84% | about 27% | 0.19% | about 46% | 0.80% | 0.82% | 0.81% | 0.84% | 0.16% | 0.17% | about 25% | 0.20% | 0.20% | 0.89 ± 0.02% | about 20% | 0.19 ± 0.01% | about 36% | –
CC(C)(N)C(=O)O [2-amino isobutyric acid] | particularly effective | 0.72% | – | 0.12% | – | – | – | – | – | – | – | – | – | – | – | – | – | – | –
O=C(O)c1ccc(Cl)cc1O [4-chloro salicylic acid] | particularly effective | 0.68% | – | 0.13% | – | – | – | – | – | – | – | – | – | – | – | – | – | – | –
O=C(O)c1cc([N+](=O)[O-])ccc1O [5-nitrosalicylic acid] | particularly effective | 0.73% | – | 0.13% | – | – | – | – | – | – | – | – | – | – | – | – | – | – | –
NC(=O)c1ccncc1 [isonicotinamide] | particularly effective | 0.70% | – | 0.14% | – | 0.71% | 0.70% | 0.70% | 0.70% | – | – | – | – | – | – | – | – | – | slight increase
O=C(O)c1ccccc1O [salicylic acid] | particularly effective | 0.70% | – | 0.11% | – | 0.70% | 0.68% | 0.70% | 0.70% | – | – | – | – | – | – | – | – | – | slight reduction
